From patent US4322348A, “Maytansinoids” (Takeda Chemical Industries, Ltd., priority 1979, dated 1982)
≈ marks a conversion by molar mass, not a printed value.

Legend:
solubility = type: physicochemical
Klebsiella pneumoniae = assay: growth inhibition, paper disc method, trypticase soy agar; type: cell-based; details: 8 mm disc, 0.02 ml of a 300 μg/ml solution
Description: (§1) The growth inhibitory activity of the compounds against the test organisms is assayed by the paper disc method using a trypticase soy agar (manufactured by Baltimore Biologicals Laboratories, U.S.A.) as the assay medium. That is, the growth inhibitory activity is determined on the plate medium containing the following test organisms using a paper disc (manufactured by Toyo Seisakusho Co. Ltd., thin type, 8 mm in diameter) impregnated with 0.02 ml of a 300 μg/ml solution of C-15003PND-1, PND-2, PND-3 or PND-4.

Proteus vulgaris = assay: as above; type: cell-based; details: 8 mm disc, 0.02 ml of a 300 μg/ml solution
Description: as §1

Mycobacterium avium = assay: as above; type: cell-based; details: 8 mm disc, 0.02 ml of a 300 μg/ml solution
Description: as §1

Proteus mirabilis = assay: as above; type: cell-based; details: 8 mm disc, 0.02 ml of a 300 μg/ml solution
Description: as §1

Staphylococcus aureus = assay: as above; type: cell-based; details: 8 mm disc, 0.02 ml of a 300 μg/ml solution
Description: as §1

Bacillus subtillis = assay: as above; type: cell-based; details: 8 mm disc, 0.02 ml of a 300 μg/ml solution
Description: as §1

Serratia marcescens = assay: as above; type: cell-based; details: 8 mm disc, 0.02 ml of a 300 μg/ml solution
Description: as §1

Pseudomonas aeruginosa = assay: as above; type: cell-based; details: 8 mm disc, 0.02 ml of a 300 μg/ml solution
Description: as §1

Bacillus cereus = assay: as above; type: cell-based; details: 8 mm disc, 0.02 ml of a 300 μg/ml solution
Description: as §1

Escherichia coli = assay: as above; type: cell-based; details: 8 mm disc, 0.02 ml of a 300 μg/ml solution
Description: as §1

[1] = acute toxicity test in mice; type: in vivo; details: intraperitoneal
[2] = tested on: Hamigera avellanea IFO 7721; assay: growth inhibition, paper disc method, agar plate; type: cell-based; details: IFO7721, 8 mm disc, 0.02 ml of a 100 μg/ml solution, pH 7.0, read-out: inhibitory zones
Description: Also, the compounds are assayed by the paper disc method using an agar plate [3.5 g of disodiumhydrogen phosphate, 0.5 g of potassium dihydrogen phosphate, 5 g of yeast extract (manufactured by Difco Co.), 10 g of glucose, 15 g of agar, 1000 ml of distilled water, pH 7.0] as a medium for assay and Hamigera avellanea IFO 7721 as a test organism. Thus, the growth inhibitory activity is determined on the plate medium containing the test organism using a paper disc (Toyo Seisakusho Co. Japan, thin type, 8 mm in diameter) impregnated with 0.02 ml of a 100 μg/ml solution of C-15003PND-1, PND-2, PND-3 or PND-4. As a result, C-15003PND-1, PND-2, PND-3 and PND-4 show inhibitory zones of 28 mm, 30 mm, 34 mm and 36 mm, respectively.

[3] = tested on: tumor cells leukemia P388; assay: antitumor activity, therapeutic effect on leukemia P388 in mice; type: in vivo; details: 1×10^6 cells/mouse i.p.; compound i.p. for 9 consecutive days
Description: The therapeutic effects of C-15003PND-1, PND-2, PND-3 and PND-4 on tumor cells leukemia P388 (1×10^6 cells/mouse, transplanted intraperitoneally) are determined by administering the compound intraperitoneally for 9 consecutive days.

Tetrahymena pyriformis W = assay: growth inhibition, liquid dilution method; type: cell-based; details: 28° C., 44 to 48 hours, pH 7.0, read-out: concentration at which the growth of the test organism is inhibited
Description: Further, the growth inhibitory activity of these antibiotics is determined by the liquid dilution method using a medium [20 g of proteose peptone (Difco Co.), 1 g of yeast extract, 2 g of glucose, 1000 ml of distilled water, 10 ml of 1 M phosphate buffer pH 7.0] and Tetrahymena pyriformis W as a test organism with incubation at 28° C. for 44 to 48 hours. As a result, the growth of the above test organism is found to be inhibited at a concentration of 8 μg/ml of C-15003PND-1, 4 μg/ml of C-15003PND-2, 2 μg/ml of C-15003PND-3 and 1 μg/ml of C-15003PND-4.

[4] = in petroleum ether, n-hexane, water
[5] = in chloroform, ethyl acetate, acetone, ethanol, methanol, pyridine, tetrahydrofuran, dimethyl sulfoxide

**Q.** Which results are given for `COc1cc2cc(c1Cl)NC(=O)CC(O)C1(C)OC1C(C)C1CC(O)(NC(=O)O1)C(OC)C=CC=C(C)C2` (stereo not shown) [C-15003PND-0]?
**A.** Solubility (solubility; in chloroform, ethyl acetate, acetone, ethanol, pyridine, tetrahydrofuran, dimethyl sulfoxide): Soluble; Solubility (solubility; [4]): Insoluble

**Q.** Which Solubility (solubility; [5]) does the source give for `COc1cc2cc(c1Cl)NC(=O)CC(OC(C)=O)C1(C)OC1C(C)C1CC(O)(NC(=O)O1)C(OC)C=CC=C(C)C2` (stereo not shown) [C-15003PND-1] here?
**A.** The Solubility was “Soluble”.

**Q.** And the Solubility (solubility; [4])?
**A.** The Solubility was “Insoluble”.

**Q.** What about the growth inhibitory activity (Klebsiella pneumoniae) of the same compound?
**A.** The growth inhibitory activity was “do not show any activity”.

**Q.** And the growth inhibitory activity (Proteus vulgaris)?
**A.** The growth inhibitory activity was “do not show any activity”.

**Q.** What about the growth inhibitory activity (Mycobacterium avium) of the same compound?
**A.** The growth inhibitory activity was “do not show any activity”.

**Q.** What about the growth inhibitory activity (Proteus mirabilis) of the same compound?
**A.** Its growth inhibitory activity is “do not show any activity”.

**Q.** And the growth inhibitory activity (Staphylococcus aureus)?
**A.** Its growth inhibitory activity is “do not show any activity”.

**Q.** What about the growth inhibitory activity (Bacillus subtillis) of the same compound?
**A.** Its growth inhibitory activity is “do not show any activity”.

**Q.** And the growth inhibitory activity (Serratia marcescens)?
**A.** Its growth inhibitory activity is “do not show any activity”.

**Q.** And the growth inhibitory activity (Pseudomonas aeruginosa)?
**A.** The growth inhibitory activity was “do not show any activity”.

**Q.** And the growth inhibitory activity (Bacillus cereus)?
**A.** Its growth inhibitory activity is “do not show any activity”.

**Q.** And the growth inhibitory activity (Escherichia coli)?
**A.** The growth inhibitory activity was “do not show any activity”.

**Q.** And the “estimated LD0” value [1]?
**A.** Its value is 0.313 mg/kg.

**Q.** And the “estimated LD100” value [1]?
**A.** Its value is 2.5 mg/kg.

**Q.** And the zone of inhibition at 100 µg/mL [2]?
**A.** The zone of inhibition at 100 µg/mL was 28 mm.

**Q.** And the life-prolonging effect [3]?
**A.** Its life-prolonging effect is “a life-prolonging effect”.

**Q.** What about the MIC (Tetrahymena pyriformis W) of the same compound?
**A.** Its MIC is 8 µg/mL (≈ 13.5 µM).

**Q.** For `CCC(=O)OC1CC(=O)Nc2cc(cc(OC)c2Cl)CC(C)=CC=CC(OC)C2(O)CC(OC(=O)N2)C(C)C2OC12C` (stereo not shown) [C-15003PND-2], which Solubility (solubility; [5]) is on record?
**A.** The Solubility was “Soluble”.

**Q.** What about the Solubility (solubility; [4]) of the same compound?
**A.** Its Solubility is “Insoluble”.

**Q.** And the growth inhibitory activity (Klebsiella pneumoniae)?
**A.** Its growth inhibitory activity is “do not show any activity”.

**Q.** What about the growth inhibitory activity (Proteus vulgaris) of the same compound?
**A.** Its growth inhibitory activity is “do not show any activity”.

**Q.** What about the growth inhibitory activity (Mycobacterium avium) of the same compound?
**A.** The growth inhibitory activity was “do not show any activity”.

**Q.** What about the growth inhibitory activity (Proteus mirabilis) of the same compound?
**A.** Its growth inhibitory activity is “do not show any activity”.

**Q.** And the growth inhibitory activity (Staphylococcus aureus)?
**A.** Its growth inhibitory activity is “do not show any activity”.

**Q.** What about the growth inhibitory activity (Bacillus subtillis) of the same compound?
**A.** Its growth inhibitory activity is “do not show any activity”.

**Q.** And the growth inhibitory activity (Serratia marcescens)?
**A.** Its growth inhibitory activity is “do not show any activity”.

**Q.** And the growth inhibitory activity (Pseudomonas aeruginosa)?
**A.** Its growth inhibitory activity is “do not show any activity”.

**Q.** What about the growth inhibitory activity (Bacillus cereus) of the same compound?
**A.** The growth inhibitory activity was “do not show any activity”.

**Q.** What about the growth inhibitory activity (Escherichia coli) of the same compound?
**A.** Its growth inhibitory activity is “do not show any activity”.

**Q.** What about the “estimated LD0” value [1] of the same compound?
**A.** The value was 0.313 mg/kg.

**Q.** And the “estimated LD100” value [1]?
**A.** The value was 2.5 mg/kg.

**Q.** What about the zone of inhibition at 100 µg/mL [2] of the same compound?
**A.** Its zone of inhibition at 100 µg/mL is 30 mm.

**Q.** And the life-prolonging effect [3]?
**A.** The life-prolonging effect was “a life-prolonging effect”.

**Q.** And the MIC (Tetrahymena pyriformis W)?
**A.** The MIC was 4 µg/mL (≈ 6.59 µM).

**Q.** For `COc1cc2cc(c1Cl)NC(=O)CC(OC(=O)C(C)C)C1(C)OC1C(C)C1CC(O)(NC(=O)O1)C(OC)C=CC=C(C)C2` (stereo not shown) [C-15003PND-3], which Solubility (solubility; [5]) is on record?
**A.** Its Solubility is “Soluble”.

**Q.** What about the Solubility (solubility; [4]) of the same compound?
**A.** The Solubility was “Insoluble”.

**Q.** And the growth inhibitory activity (Klebsiella pneumoniae)?
**A.** The growth inhibitory activity was “do not show any activity”.

**Q.** And the growth inhibitory activity (Proteus vulgaris)?
**A.** The growth inhibitory activity was “do not show any activity”.

**Q.** And the growth inhibitory activity (Mycobacterium avium)?
**A.** Its growth inhibitory activity is “do not show any activity”.

**Q.** What about the growth inhibitory activity (Proteus mirabilis) of the same compound?
**A.** Its growth inhibitory activity is “do not show any activity”.

**Q.** And the growth inhibitory activity (Staphylococcus aureus)?
**A.** The growth inhibitory activity was “do not show any activity”.

**Q.** What about the growth inhibitory activity (Bacillus subtillis) of the same compound?
**A.** Its growth inhibitory activity is “do not show any activity”.

**Q.** What about the growth inhibitory activity (Serratia marcescens) of the same compound?
**A.** The growth inhibitory activity was “do not show any activity”.

**Q.** What about the growth inhibitory activity (Pseudomonas aeruginosa) of the same compound?
**A.** Its growth inhibitory activity is “do not show any activity”.

**Q.** And the growth inhibitory activity (Bacillus cereus)?
**A.** Its growth inhibitory activity is “do not show any activity”.

**Q.** And the growth inhibitory activity (Escherichia coli)?
**A.** Its growth inhibitory activity is “do not show any activity”.

**Q.** What about the “estimated LD0” value [1] of the same compound?
**A.** The value was 0.313 mg/kg.

**Q.** What about the “estimated LD100” value [1] of the same compound?
**A.** Its value is 2.5 mg/kg.

**Q.** And the zone of inhibition at 100 µg/mL [2]?
**A.** Its zone of inhibition at 100 µg/mL is 34 mm.

**Q.** And the life-prolonging effect [3]?
**A.** The life-prolonging effect was “a life-prolonging effect”.

**Q.** What about the MIC (Tetrahymena pyriformis W) of the same compound?
**A.** Its MIC is 2 µg/mL (≈ 3.22 µM).

**Q.** With `COc1cc2cc(c1Cl)NC(=O)CC(OC(=O)CC(C)C)C1(C)OC1C(C)C1CC(O)(NC(=O)O1)C(OC)C=CC=C(C)C2` (stereo not shown) [C-15003PND-4] as the compound, how does the Solubility (solubility; [5]) read?
**A.** Its Solubility is “Soluble”.

**Q.** What about the Solubility (solubility; [4]) of the same compound?
**A.** The Solubility was “Insoluble”.

**Q.** And the growth inhibitory activity (Klebsiella pneumoniae)?
**A.** The growth inhibitory activity was “do not show any activity”.

**Q.** And the growth inhibitory activity (Proteus vulgaris)?
**A.** The growth inhibitory activity was “do not show any activity”.

**Q.** What about the growth inhibitory activity (Mycobacterium avium) of the same compound?
**A.** The growth inhibitory activity was “do not show any activity”.

**Q.** And the growth inhibitory activity (Proteus mirabilis)?
**A.** Its growth inhibitory activity is “do not show any activity”.

**Q.** What about the growth inhibitory activity (Staphylococcus aureus) of the same compound?
**A.** Its growth inhibitory activity is “do not show any activity”.

**Q.** What about the growth inhibitory activity (Bacillus subtillis) of the same compound?
**A.** The growth inhibitory activity was “do not show any activity”.

**Q.** What about the growth inhibitory activity (Serratia marcescens) of the same compound?
**A.** Its growth inhibitory activity is “do not show any activity”.

**Q.** What about the growth inhibitory activity (Pseudomonas aeruginosa) of the same compound?
**A.** The growth inhibitory activity was “do not show any activity”.

**Q.** What about the growth inhibitory activity (Bacillus cereus) of the same compound?
**A.** Its growth inhibitory activity is “do not show any activity”.

**Q.** What about the growth inhibitory activity (Escherichia coli) of the same compound?
**A.** Its growth inhibitory activity is “do not show any activity”.

**Q.** And the “estimated LD0” value [1]?
**A.** The value was 0.313 mg/kg.

**Q.** And the “estimated LD100” value [1]?
**A.** Its value is 2.5 mg/kg.

**Q.** And the zone of inhibition at 100 µg/mL [2]?
**A.** Its zone of inhibition at 100 µg/mL is 36 mm.

**Q.** What about the life-prolonging effect [3] of the same compound?
**A.** The life-prolonging effect was “a life-prolonging effect”.

**Q.** And the MIC (Tetrahymena pyriformis W)?
**A.** The MIC was 1 µg/mL (≈ 1.57 µM).
